Legend:
[1] = test system: GDF8 signaling (GDF pSMAD, MPC11); assay: AlphaScreen SureFire SMAD3 (p-Ser423/425) assay, inhibition of GDF8 signaling; assay type: cell-based; conditions: Mus musculus, MPC-11, p-SMAD-3 (Ser423/425) in cell lysate after GDF8 stimulation
[2] = test system: TGF-β signaling (TGF-β pSMAD, MPC-11); assay: AlphaScreen SureFire SMAD3 (p-Ser423/425) assay, inhibition of TGF-β signaling; assay type: cell-based; conditions: Mus musculus, p-SMAD-3 (Ser423/425) in cell lysate after TGF-β stimulation
How it was run: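 Phosphorylation of endogenous SMAD-3 at Ser423/425 was quantified with an AlphaScreen SureFire assay. Cells were exposed to compound for about 10 minutes, stimulated with TGF-β, and lysed in 1× Lysis Buffer. Lysate (5 μL) was combined with Reaction/Activation buffer plus Acceptor beads for 2 hours, then Donor beads for 1½ hours, and read on a plate reader.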

Structure (SMILES) | IC50 [1] [nM] | IC50 [2] [nM]
Fc1ccc(-c2nn3c(c2-c2ccc4nccnc4c2)CCC3)cc1OC(F)(F)F [Compound 153, 6-(2-(4-Fluoro-3-trifluoromethoxyphenyl)-5,6-dihydro-4H-pyrrolo[1,2-b]pyrazol-3-yl)quinoxaline] | 551 | 1780
Fc1ccc(-c2nn3c(c2-c2ccc4ncnn4c2)CCC3)cc1OC(F)(F)F [Compound 154, 6-(2-(4-Fluoro-3-trifluoromethoxyphenyl)-5,6-dihydro-4H-pyrrolo[1,2-b]pyrazol-3-yl)-[1,2,4]triazolo[1,5-a]pyridine] | 448 | 825
Fc1ccc(-c2nn3c(c2-c2ccc4[nH]ncc4c2)CCC3)c(F)c1Cl [Compound 155, 5-(2-(3-Chloro-2,4-difluorophenyl)-5,6-dihydro-4H-pyrrolo[1,2-b]pyrazol-3-yl)-1H-indazole] | 105 | 1020
Fc1ccc(-c2nn3c(c2-c2ccc4ncsc4c2)CCC3)c(F)c1Cl [Compound 158, 6-(2-(3-Chloro-2,4-difluorophenyl)-5,6-dihydro-4H-pyrrolo[1,2-b]pyrazol-3-yl)benzo[d]thiazole] | 84.2 | 549
Fc1ccc(-c2nn3c(c2-c2ccc4nccnc4c2)CCC3)c(F)c1Cl [Compound 159, 6-(2-(3-Chloro-2,4-difluorophenyl)-5,6-dihydro-4H-pyrrolo[1,2-b]pyrazol-3-yl)quinoxaline] | 526 | 2730
Fc1ccc(-c2nn3c(c2-c2ccc4ncnn4c2)CCC3)c(F)c1Cl [Compound 160, 6-(2-(3-Chloro-2,4-difluorophenyl)-5,6-dihydro-4H-pyrrolo[1,2-b]pyrazol-3-yl)-[1,2,4]triazolo[1,5-a]pyridine] | 296 | 738
COc1c(F)ccc(-c2nn3c(c2-c2ccc4[nH]ncc4c2)CCC3)c1F [Compound 161, 5-(2-(2,4-Difluoro-3-methoxyphenyl)-5,6-dihydro-4H-pyrrolo[1,2-b]pyraozl-3-yl)-1H-indazole] | 626 | 1440
COc1c(F)ccc(-c2nn3c(c2-c2ccc4ncsc4c2)CCC3)c1F [Compound 162, 6-(2-(2,4-Difluoro-3-methoxyphenyl)-5,6-dihydro-4H-pyrrolo[1,2-b]pyrazol-3-yl)benzo[d]thiazole] | 555 | 2220
COc1ccc(F)c(-c2nn3c(c2-c2ccc4nccn4c2)CCC3)c1 [Compound 164, 6-(2-(2-Fluoro-5-methoxyphenyl)-5,6-dihydro-4H-pyrrolo[1,2-b]pyrazol-3-yl)imidazo[1,2-a]pyridine] | 570 | 1310
COc1ccc(F)c(-c2nn3c(c2-c2ccc4nccnc4c2)CCC3)c1 [Compound 165, 6-(2-(2-Fluoro-5-methoxyphenyl)-5,6-dihydro-4H-pyrrolo[1,2-b]pyrazol-3-yl)quinoxaline] | 7.2 | 29
Cc1c(F)ccc(-c2nn3c(c2-c2ccc4[nH]ncc4c2)CCC3)c1F [Compound 167, 5-(2-(2,4-Difluoro-3-methylphenyl)-5,6-dihydro-4H-pyrrolo[1,2-b]pyrazol-3-yl)-1H-indazole] | 209 | 538
Cc1c(F)ccc(-c2nn3c(c2-c2ccc4cn[nH]c4c2)CCC3)c1F [Compound 168, 6-(2-(2,4-Difluoro-3-methylphenyl)-5,6-dihydro-4H-pyrrolo[1,2-b]pyrazol-3-yl)-1H-indazole] | 414 | 797
Cc1c(F)ccc(-c2nn3c(c2-c2ccc4nccn4c2)CCC3)c1F [Compound 169, 6-(2-(2,4-Difluoro-3-methylphenyl)-5,6-dihydro-4H-pyrrolo[1,2-b]pyrazol-3-yl)imidazo[1,2-a]pyridine] | 178 | 464
Cc1c(F)ccc(-c2nn3c(c2-c2ccc4ncsc4c2)CCC3)c1F [Compound 170, 6-(2-(2,4-Difluoro-3-methylphenyl)-5,6-dihydro-4H-pyrrolo[1,2-b]pyrazol-3-yl)benzo[d]thiazole] | 213 | 603
Fc1ccc(Cl)cc1-c1nn2c(c1-c1ccc3ncsc3c1)CCC2 [Compound 175, 6-(2-(5-Chloro-2-fluorophenyl)-5,6-dihydro-4H-pyrrolo[1,2-b]pyrazol-3-yl)benzo[d]thiazole] | 28.3 | 41.9
Fc1ccc(Cl)cc1-c1nn2c(c1-c1ccc3nccnc3c1)CCC2 [Compound 177, 6-(2-(5-Chloro-2-fluorophenyl)-5,6-dihydro-4H-pyrrolo[1,2-b]pyrazol-3-yl)quinoxaline] | 35.6 | 83.5
Cc1cc(-c2nn3c(c2-c2ccc4ncsc4c2)CCC3)c(F)cc1F [Compound 182, 6-(2-(2,4-Difluoro-5-methylphenyl)-5,6-dihydro-4H-pyrrolo[1,2-b]pyrazol-3-yl)benzo[d]thiazole] | 112 | 225
Cc1cc(-c2nn3c(c2-c2ccc4ncccc4c2)CCC3)c(F)cc1F [Compound 183, 6-(2-(2,4-Difluoro-5-methylphenyl)-5,6-dihydro-4H-pyrrolo[1,2-b]pyrazol-3-yl)quinoline] | 463 | 1640
Cc1cc(-c2nn3c(c2-c2ccc4nccnc4c2)CCC3)c(F)cc1F [Compound 184, 6-(2-(2,4-Difluoro-5-methylphenyl)-5,6-dihydro-4H-pyrrolo[1,2-b]pyrazol-3-yl)quinoxaline] | 139 | 302
Cc1cc(-c2nn3c(c2-c2ccc4ncnn4c2)CCC3)c(F)cc1F [Compound 185, 6-(2-(2,4-Difluoro-5-methylphenyl)-5,6-dihydro-4H-pyrrolo[1,2-b]pyrazol-3-yl)-[1,2,4]triazolo[1,5-a]pyridine] | 38.5 | 69.6
Fc1cc(F)c(-c2nn3c(c2-c2ccc4[nH]ncc4c2)CCC3)cc1Cl [Compound 186, 5-(2-(5-Chloro-2,4-difluorophenyl)-5,6-dihydro-4H-pyrrolo[1,2-b]pyrazol-3-yl)-1H-indazole] | 106 | 350

More lines, in order of falling IC50 [1], values ahead:

IC50 [1] [nM] | IC50 [2] [nM] | Structure (SMILES)
1220 | 1840 | Cc1c(F)ccc(-c2nn3c(c2-c2ccc4ncccc4c2)CCC3)c1F [Compound 171, 6-(2-(2,4-Difluoro-3-methylphenyl)-5,6-dihydro-4H-pyrrolo[1,2-b]pyrazol-3-yl)quinoline]
678 | 1780 | Cc1c(F)ccc(-c2nn3c(c2-c2ccc4nccnc4c2)CCC3)c1F [Compound 172, 6-(2-(2,4-Difluoro-3-methylphenyl)-5,6-dihydro-4H-pyrrolo[1,2-b]pyrazol-3-yl)quinoxaline]
587 | 1750 | Cc1cc(-c2nn3c(c2-c2ccc4cn[nH]c4c2)CCC3)c(F)cc1F [Compound 180, 6-(2-(2,4-Difluoro-5-methylphenyl)-5,6-dihydro-4H-pyrrolo[1,2-b]pyrazol-3-yl)-1H-indazole]
440 | 2840 | Fc1ccc(-c2nn3c(c2-c2ccc4cn[nH]c4c2)CCC3)c(F)c1Cl [Compound 156, 6-(2-(3-Chloro-2,4-difluorophenyl)-5,6-dihydro-4H-pyrrolo[1,2-b]pyrazol-3-yl)-1H-indazole]
430 | 1340 | COc1c(F)ccc(-c2nn3c(c2-c2ccc4ncnn4c2)CCC3)c1F [Compound 163, 6-(2-(2,4-Difluoro-3-methoxyphenyl)-5,6-dihydro-4H-pyrrolo[1,2-b]pyrazol-3-yl)-[1,2,4]triazolo[1,5-a]pyridine]
204 | 380 | Cc1cc(-c2nn3c(c2-c2ccc4nccn4c2)CCC3)c(F)cc1F [Compound 181, 6-(2-(2,4-Difluoro-5-methylphenyl)-5,6-dihydro-4H-pyrrolo[1,2-b]pyrazol-3-yl)imidazo[1,2-a]pyridine]
172 | 714 | Cc1cc(-c2nn3c(c2-c2ccc4[nH]ncc4c2)CCC3)c(F)cc1F [Compound 179, 5-(2-(2,4-Difluoro-5-methyphenyl)-5,6-dihydro-4H-pyrrolo[1,2-b]pyrazol-3-yl)-1H-indazole]
135 | 656 | Fc1cc(F)c(-c2nn3c(c2-c2ccc4cn[nH]c4c2)CCC3)cc1Cl [Compound 187, 6-(2-(5-Chloro-2,4-difluorophenyl)-5,6-dihydro-4H-pyrrolo[1,2-b]pyrazol-3-yl)-1H-indazole]
133 | 685 | Fc1ccc(-c2nn3c(c2-c2ccc4nccn4c2)CCC3)c(F)c1Cl [Compound 157, 6-(2-(3-Chloro-2,4-difluorophenyl)-5,6-dihydro-4H-pyrrolo[1,2-b]pyrazol-3-yl)imidazo[1,2-a]pyridine]
131 | 335 | Cc1c(F)ccc(-c2nn3c(c2-c2ccc4ncnn4c2)CCC3)c1F [Compound 173, 6-(2-(2,4-Difluoro-3-methyphenyl)-5,6-dihydro-4H-pyrrolo[1,2-b]pyrazol-3-yl)-[1,2,4]triazolo[1,5-a]pyridine]
46.6 | 139 | Fc1ccc(Cl)cc1-c1nn2c(c1-c1ccc3ncccc3c1)CCC2 [Compound 176, 6-(2-(5-Chloro-2-fluorophenyl)-5,6-dihydro-4H-pyrrolo[1,2-b]pyrazol-3-yl)quinoline]
36.7 | 153 | Fc1ccc(Cl)cc1-c1nn2c(c1-c1ccc3cn[nH]c3c1)CCC2 [Compound 174, 6-(2-(5-Chloro-2-fluorophenyl)-5,6-dihydro-4H-pyrrolo[1,2-b]pyrazol-3-yl)-1H-indazole]
13.2 | 31.1 | Fc1ccc(Cl)cc1-c1nn2c(c1-c1ccc3ncnn3c1)CCC2 [Compound 178, 6-(2-(5-Chloro-2-fluorophenyl)-5,6-dihydro-4H-pyrrolo[1,2-b]pyrazol-3-yl)-[1,2,4]triazolo[1,5-a]pyridine]

— patent publication US10822337B2, “TGF-β inhibitorC” (Rigel Pharmaceuticals, Inc., priority 2015, dated 2020)
